Source: patent US20040097596A1 (priority 2000, published 2004)
Read-outs that look alike come from different tables or passages of the source.

Assays:
[1] = test system: Oidium lycopersici; experiment: Powdery mildew assay on detached tomato leaflets, % disease control, observed vs expected (Colby); type: in vivo
[2] = test system: Phytophthora infestans; type: in vivo; conditions: for E, Expected % disease control / O, Observed % disease control / O-E: A76 potato
[3] = tomato 980 Le/MM/Cf9-8, 0.1 ppm, Feb. 16, 2001
[4] = tomato 980 Le/MM/Cf9-8, 0.1 ppm, Feb. 17, 2001
[5] = tomato 980 Le/MM/Cf9-8, 0.1 ppm, Feb. 18, 2001
[6] = tomato 980 Le/MM/Cf9-8, 0.1 ppm, Feb. 19, 2001
[7] = tomato 980 Le/MM/Cf9-8, 0.1 ppm, Feb. 20, 2001
[8] = tomato 980 Le/MM/Cf9-44, 0.1 ppm, Feb. 16, 2001
[9] = tomato 980 Le/MM/Cf9-44, 0.1 ppm, Feb. 17, 2001
[10] = tomato 980 Le/MM/Cf9-44, 0.1 ppm, Feb. 18, 2001
[11] = tomato 980 Le/MM/Cf9-44, 0.1 ppm, Feb. 19, 2001
[12] = tomato 980 Le/MM/Cf9-44, 0.1 ppm, Feb. 20, 2001
[13] = tomato 981 Le/MM/Cf9-22, 0.1 ppm, Feb. 16, 2001
[14] = tomato 981 Le/MM/Cf9-22, 0.1 ppm, Feb. 17, 2001
[15] = tomato 981 Le/MM/Cf9-22, 0.1 ppm, Feb. 18, 2001
[16] = tomato 981 Le/MM/Cf9-22, 0.1 ppm, Feb. 19, 2001
[17] = tomato 981 Le/MM/Cf9-22, 0.1 ppm, Feb. 20, 2001
[18] = 0.03 ppm, Jan. 25, 2001, FB 2001/3001
[19] = 0.03 ppm, Jan. 26, 2001, FB 2001/3001
[20] = 0.03 ppm, Jan. 27, 2001, FB 2001/3001
[21] = 0.03 ppm, Jan. 28, 2001, FB 2001/3001
[22] = 0.03 ppm, Jan. 29, 2001, FB 2001/3001
[23] = 0.1 ppm, Jan. 25, 2001, FB 2001/3001
[24] = 0.1 ppm, Jan. 26, 2001, FB 2001/3001
[25] = 0.1 ppm, Jan. 27, 2001, FB 2001/3001
[26] = 0.1 ppm, Jan. 28, 2001, FB 2001/3001
[27] = 0.1 ppm, Jan. 29, 2001, FB 2001/3001
[28] = 0.3 ppm, Jan. 25, 2001, FB 2001/3001
[29] = 0.3 ppm, Jan. 26, 2001, FB 2001/3001
[30] = 0.3 ppm, Jan. 27, 2001, FB 2001/3001
[31] = 0.3 ppm, Jan. 28, 2001, FB 2001/3001
[32] = 0.3 ppm, Jan. 29, 2001, FB 2001/3001

In the case of `CO/C=C(/C(=O)OC)c1ccccc1Oc1cc(Oc2ccccc2C#N)ncn1` [Azoxystrobin, azoxystrobin], the “performance in combination with the transgenic line (indicative of synergy)” value ([1]; all three transgenic tomato lines, observed vs expected disease control) is reported as “better than expected”, the “E, expected disease control” value [1, 3] is reported as 97.5% and the “O, observed disease control” value [1, 3] is reported as 93.01%. The O-E [1, 3] was −4.49, the “E, expected disease control” value [1, 4] was 92.53% and the “O, observed disease control” value [1, 4] was 89.64%. For the same compound, the O-E [1, 4] was −2.89, the “E, expected disease control” value [1, 5] was 79.68% and the “O, observed disease control” value [1, 5] was 86.84%. For the same compound, the O-E [1, 5] was 7.16, the “E, expected disease control” value [1, 6] was 74.81% and the “O, observed disease control” value [1, 6] was 87.5%. The O-E [1, 6] was 12.69, the “E, expected disease control” value [1, 7] was 67.47% and the “O, observed disease control” value [1, 7] was 81.11%. The O-E [1, 7] was 13.64, the “E, expected disease control” value [1, 8] was 93.9% and the “O, observed disease control” value [1, 8] was 100%. The O-E [1, 8] was 6.1, the “E, expected disease control” value [1, 9] was 84.21% and the “O, observed disease control” value [1, 9] was 97.12%. The O-E [1, 9] was 12.91, the “E, expected disease control” value [1, 10] was 67.22% and the “O, observed disease control” value [1, 10] was 89.72%. For the same compound, the O-E [1, 10] was 22.5, the “E, expected disease control” value [1, 11] was 61.62% and the “O, observed disease control” value [1, 11] was 86.36%. The O-E [1, 11] was 24.74, the “E, expected disease control” value [1, 12] was 52.54% and the “O, observed disease control” value [1, 12] was 79.57%. For the same compound, the O-E [1, 12] was 27.03, the “E, expected disease control” value [1, 13] was 93.41% and the “O, observed disease control” value [1, 13] was 96.01%. The O-E [1, 13] was 2.6, the “E, expected disease control” value [1, 14] was 81.74% and the “O, observed disease control” value [1, 14] was 96.55%. The O-E [1, 14] was 14.81, the “E, expected disease control” value [1, 15] was 69.49% and the “O, observed disease control” value [1, 15] was 89.47%. For the same compound, the O-E [1, 15] was 19.98, the “E, expected disease control” value [1, 16] was 63.9% and the “O, observed disease control” value [1, 16] was 90.91%. For the same compound, the O-E [1, 16] was 27.01, the “E, expected disease control” value [1, 17] was 56.11% and the “O, observed disease control” value [1, 17] was 87.84%. For the same compound, the O-E [1, 17] was 31.73, the “E, Expected % disease control” value [2, 18] was 85.1% and the “O, Observed % disease control” value [2, 18] was 86.1%. For the same compound, the O-E [2, 18] was 1.0, the “E, Expected % disease control” value [2, 19] was 91.0% and the “O, Observed % disease control” value [2, 19] was 91.0%. For the same compound, the O-E [2, 19] was 0.0, the “E, Expected % disease control” value [2, 20] was 84.2% and the “O, Observed % disease control” value [2, 20] was 89.6%. The O-E [2, 20] was 5.4, the “E, Expected % disease control” value [2, 21] was 56.4% and the “O, Observed % disease control” value [2, 21] was 84.9%. The O-E [2, 21] was 28.4, the “E, Expected % disease control” value [2, 22] was 38.7% and the “O, Observed % disease control” value [2, 22] was 63.8%. The O-E [2, 22] was 25.1, the “E, Expected % disease control” value [2, 23] was 91.8% and the “O, Observed % disease control” value [2, 23] was 91.7%. The O-E [2, 23] was −0.1, the “E, Expected % disease control” value [2, 24] was 95.1% and the “O, Observed % disease control” value [2, 24] was 98.6%. For the same compound, the O-E [2, 24] was −1.6, the “E, Expected % disease control” value [2, 25] was 93.1% and the “O, Observed % disease control” value [2, 25] was 91.7%. The O-E [2, 25] was −1.4, the “E, Expected % disease control” value [2, 26] was 76.1% and the “O, Observed % disease control” value [2, 26] was 89.9%. The O-E [2, 26] was 13.9, the “E, Expected % disease control” value [2, 27] was 51.1% and the “O, Observed % disease control” value [2, 27] was 86.9%. The O-E [2, 27] was 35.8, the “E, Expected % disease control” value [2, 28] was 95.5% and the “O, Observed % disease control” value [2, 28] was 97.2%. The O-E [2, 28] was 1.7, the “E, Expected % disease control” value [2, 29] was 97.2% and the “O, Observed % disease control” value [2, 29] was 98.7%. For the same compound, the O-E [2, 29] was 1.5, the “E, Expected % disease control” value [2, 30] was 95.6% and the “O, Observed % disease control” value [2, 30] was 97.9%. The O-E [2, 30] was 2.4, the “E, Expected % disease control” value [2, 31] was 87.1% and the “O, Observed % disease control” value [2, 31] was 98.0%. The O-E [2, 31] was 10.9, the “E, Expected % disease control” value [2, 32] was 74.6% and the “O, Observed % disease control” value [2, 32] was 97.0%. For the same compound, the O-E [2, 32] was 22.4 and the “performance in combination with A76 (indicative of synergy)” value ([2]; in combination with A76 potato, observed vs expected disease control) was “better than expected”.
